# Experimental data taken from patent publication US9018226B2, “Antipsychotic agents and standardized antipsychotic fractions from Rauwolfia tetraphylla and process of their isolation” (Council of Scientific & Industrial Research, priority 2009, dated 2015).
# Experiments:
# [1] = system: amphetamine induced hyperactive mouse model; test: amphetamine induced hyperactivity mouse model; format: in vivo, Swiss mice; conditions: for in-vivo antipsychotic activity, in words: mouse
# Method: (§1) The above fractions were evaluated for their antipsychotic activity. In order to assess the antipsychotic potential of MeOH extract, its various fractions, alkaloids isolated and their derivatives from Rauwolfia tetraphylla leaf, amphetamine induced hyper activity mouse model was used following the method of Szewczak et al (1987). Adult Swiss mice of either sex (25±2 g body weight) obtained from the Indian Institute of Toxicology Research (IITR), Lucknow, India animal-breeding colony were used throughout the experiment. The animals were housed in plastic polypropylene cages under standard animal house conditions with a 12 hours light/dark cycle and temperature of 25±2° C. The animals had adlibitum access to drinking water and pellet diet (Hindustan Lever Laboratory Animal Feed, Kolkata, India). The Animal Care and Ethics Committee of IITR approved all experimental protocols applied to animals.
# Mice were injected with amphetamine (5 mg/kg, i.p.) 60 minutes after oral treatment with respective extract in each group.
# as §1, with “In” for “The above fractions were evaluated for their antipsychotic activity. In”
# The mice randomly grouped in batches of seven animals per group. The basal motor activity (distance traveled) of each mouse was recorded individually using automated activity monitor (TSE, Germany). After basal activity recording, a group of seven animals were challenged with amphetamine [[…], intra peritoneal (i.p) dissolved in normal saline]. After 30 min. amphetamine injection, motor activity was recorded for individual animal for 5 min.
# The difference in motor activity as indicated by distance traveled in animals with amphetamine alone treated and animals with samples plus amphetamine challenge was recorded as inhibition in hyperactivity caused by amphetamine and the data presented as percent inhibition in amphetamine induced hyperactivity.
# alpha-2 adrenoceptor = conditions: rats and mice; cited from earlier work
# alpha-2 adrenoceptors = conditions: in vivo; cited from earlier work
structure (smiles),measurement,setting,value
COC(=O)[C@H]1[C@H]2C[C@@H]3c4[nH]c5cc(OC)ccc5c4CCN3C[C@H]2C[C@@H](OC(=O)c2cc(OC)c(OC)c(OC)c2)[C@@H]1OC [Reserpine],Anti-psychotic activity (% inhibition in amphetamine induced hyperactivity),[1]; dose 5 mg/Kg,34%
same,Distance traveled,"[1]; dose 5 mg/Kg, amphetamine 5 mg/kg i.p. 60 minutes later",4002 cm
same,Distance traveled,"[1]; dose […], amphetamine 5 mg/kg i.p. 60 minutes later",5093 cm
CC(N)Cc1ccccc1 (stereo not shown) [Amphetamine],Distance traveled,"[1]; amphetamine alone, 5 mg/Kg i.p.",6064 cm
c1ccc2c(c1)OCC(C1=NCCN1)O2 (stereo not shown) [RX 781094],effectiveness relative to α-yohimbine in antagonizing clonidine hypotension and sedation,alpha-2 adrenoceptor,approximately 3 times
"COC(=O)[C@H]1[C@H]2C[C@H]3c4[nH]c5ccccc5c4CCN3C[C@H]2CC[C@@H]1O [Compound K001, 17α-hydroxy-20α-yohimban-16β-carboxylic acid methyl ester]",inhibition in amphetamine induced hyperactivity mice model,[1]; 6.25 mg/Kg,> 60%
same,"in-vivo antipsychotic activity, in words",[1],significant in-vivo antipsychotic activity at lower doses
same,"in-vivo antipsychotic activity, in words",[1]; listed as α-yohimbine (K001),more active even at lower doses
same,alpha-2 adrenoceptor selectivity relative to RS 21361,alpha-2 adrenoceptors,~2 times
same,alpha-2 adrenoceptor selectivity relative to RX 781094,alpha-2 adrenoceptors,about 25 times
